Data as given in PubChem BioAssay (NCI).
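Growth conditions: 96-well plates. Treatment: test compound, 48 hours, 5 concentrations. Analysis: linear interpolation between bracketing concentrations; unreached endpoints set to highest concentration. GI50 marks 50% less growth. Definition used: TGI = concentration required for complete inhibition of growth.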

What was measured:
Assay in all cases: inhibition of tumour cell growth, NCI panel, 48 h
[1] = test system: SNB-19 CNS
[2] = test system: UO-31 renal
[3] = test system: SK-MEL-28 melanoma
[4] = test system: NCI-H226 lung
[5] = test system: HCC-2998 colon
[6] = test system: SN12C renal
[7] = test system: 786-0 renal
[8] = test system: IGROV1 ovarian
[9] = test system: NCI-H23 lung
[10] = test system: RPMI-8226 leukemia

Structure (SMILES) | GI50 [1] [µM] | TGI [1] [µM] | GI50 [2] [nM] | TGI [2] [µM] | GI50 [3] [nM] | TGI [3] [µM] | GI50 [4] [nM] | TGI [4] [µM] | GI50 [5] [nM] | TGI [5] [µM] | GI50 [6] [nM] | TGI [6] [µM] | GI50 [7] [nM] | TGI [7] [µM] | GI50 [8] [nM] | TGI [8] [µM] | GI50 [9] [nM] | TGI [9] [µM] | GI50 [10] [nM] | TGI [10] [µM]
N#CC1=C(N)Oc2c(sc3c(Br)cccc23)C1c1ccc(Br)cc1 (centres undefined) | 0.707 | 12.8 | 1950 | 11.8 | 1440 | 13.3 | 4280 | 20.2 | 1770 | 7.33 | 2330 | 13.4 | 776 | 2.96 | 887 | 12.9 | 1580 | 13.4 | 1440 | 16
CC(NCCC(=O)N(CCC(=O)N(CCC(=O)N(CCC(=O)N(CCC(=O)N(CCC(=O)N(CCC(=O)N(CCC(=O)N(CCC(=O)N(CCC(=O)O)[C@H](C)c1ccccc1)[C@H](C)c1ccccc1)[C@H](C)c1ccccc1)[C@H](C)c1ccccc1)[C@H](C)c1ccccc1)[C@H](C)c1ccccc1)[C@H](C)c1ccccc1)[C@H](C)c1ccccc1)[C@H](C)c1ccccc1)c1ccccc1 (some centres undefined) | > 19.1 | > 75 | 3550 | > 75 | 1500 | 3.63 | 3620 | 20.2 | 1380 | 3.11 | 3660 | > 75 | 3460 | > 75 | 872 | 15 | 3900 | 49.1 | 1100 | 4.08
Cc1ccc(NC(=O)C(=O)CC(=O)c2c(C)n([O-])c3ccccc3[n+]2=O)cc1 |  | > 100 |  | > 100 |  | > 100 |  | > 100 |  | > 100 |  | > 100 |  | > 100 |  | 78.3 |  | 56.6 |  | 58.6
O=C1C=CC[C@H](/C=C/c2ccccc2)O1 | 3.61 | 22.6 | 3890 | 8.99 | 2760 | 15.3 | 787 | 4.31 | 642 | 3.42 | 3550 | 17.9 | 6280 | 24.3 | 5440 | 26.5 | 2140 | 10.7 | 742 | 
O=C(c1ccccc1)C(Br)C(Br)c1cccc([N+](=O)[O-])c1 (centres undefined) | 3.32 | 12.9 | 1680 | 3.14 | 1870 | 3.64 | 1740 | 3.46 | 1570 | 2.95 | 1880 | 4.21 | 1610 | 3.07 | 2750 | 7.5 | 2250 | 6.45 | 2150 | 6.24
